Patent publication US9688684B2, “Substituted tetrazolo[1,5-a]pyrazines as ROR-gamma inhibitors” (Merck Patent GmbH, priority 2013, dated 2017)

Columns and labels:
[1] = target: RORγ Ligand binding domain (RORγ-LBD, aa 238-497, NP_001001523) (Homo sapiens (Human), UniProt P51449); test: ROR γ GAI4 Reporter Gene Assay (Mammalian one-hybrid, M1H) in 293T cells; type: cell-based
From the text: ROR γ GAI4 Reporter Gene Assay
A Mammalian one-hybrid system is used to perform a cell-based functional transactivation assay for detecting RORγ activity modulators.
The Mammalian-1-Hybrid is derived from the Mammalian-2-Hybrid setup. Whereas in the latter, the binding partners are defined in their role as interaction, transactivation and DNA-binding components, the Mammalian-1-Hybrid makes use of the fact that all mammalian cell types express a set of Nuclear Receptors and their associated cofactors. […] A Gal4 minimal promoter driven luciferase construct (pFR-Luc from Stratagene, containing a synthetic promoter with five tandem repeats of the yeast GAL4 binding sites controlling expression of the Photinus pyralis luciferase gene) is used as reporter. The Gal4-DBD-NR-LBD fusion protein by itself cannot initiate transcription and is dependent on the presence of cofactors present in the cellular system used.
In order to rule out cytotoxic and unspecific transcriptional compound effects a transfection with a firefly luciferase driven by the constitutive CMV promoter is performed in parallel.
After transfection 18 μl complete MEM medium containing 3% charcoal-dextran treated FBS is added as well as 4 μl test compounds (DMSO stocks prediluted in OptiMem (Invitrogen)) followed by incubation for 16-24 h at 37° C., 5% CO2 and 90% rH.
Firefly luciferase activity is measured using the Promega ONE-Glo™ Luciferase Assay System.

[2] = target: human RORγ ligand binding domain (GST-hRORγ-LBD) (Homo sapiens (Human), UniProt P51449); test: TR-FRET assay (biochemical cofactor interaction assay, GST-hRORγ-LBD / TRAP220 peptide)
human RORγ ligand binding domain (GST-hRORγ-LBD), sequence (P51449 269-508): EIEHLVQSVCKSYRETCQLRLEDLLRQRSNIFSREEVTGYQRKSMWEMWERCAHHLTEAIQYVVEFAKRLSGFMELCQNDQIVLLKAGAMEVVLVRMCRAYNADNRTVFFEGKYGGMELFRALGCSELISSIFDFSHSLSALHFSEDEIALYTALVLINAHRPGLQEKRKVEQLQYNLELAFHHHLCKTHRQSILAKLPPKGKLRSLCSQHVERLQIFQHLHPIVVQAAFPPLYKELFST

RORγ Ligand binding domain (RORγ-LBD, aa 238-497, NP_001001523), sequence (P51449 259-518): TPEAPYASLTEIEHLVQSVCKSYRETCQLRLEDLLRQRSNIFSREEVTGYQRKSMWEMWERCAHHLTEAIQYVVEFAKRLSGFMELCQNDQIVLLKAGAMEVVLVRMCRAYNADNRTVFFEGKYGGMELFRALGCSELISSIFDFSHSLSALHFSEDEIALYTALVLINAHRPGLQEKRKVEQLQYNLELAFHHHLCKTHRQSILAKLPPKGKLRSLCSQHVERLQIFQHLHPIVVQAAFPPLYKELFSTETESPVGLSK

| SMILES | IC50 [1] | IC50 [2] |
| --- | --- | --- |
| CC(C)(C)c1nn(Cc2ccccc2)cc1C1c2nnnn2CCN1Cc1cccs1 (stereo not drawn) [Compound 160, 8-(1-Benzyl-3-tert-butyl-1H-pyrazol-4-yl)-7-thiophen-2-ylmethyl-5,6,7,8-tetrahydro-tetrazolo[1,5-a]pyrazine] | 0.99 to 9.9 µM | 9.9 to 40 µM |
| CC(C)c1nn(-c2ccccc2)cc1C1c2nnnn2CCN1Cc1cnn(Cc2ccccc2)c1 (stereo not drawn) [Compound 161, 7-(1-Benzyl-1H-pyrazol-4-ylmethyl)-8-(3-isopropyl-1-phenyl-1H-pyrazol-4-yl)-5,6,7,8-tetrahydro-tetrazolo[1,5-a]pyrazine] | 0.99 to 9.9 µM | 0.99 to 9.9 µM |
| Fc1cccc(C2c3nnnn3CCN2Cc2cccc(Br)c2)c1 (stereo not drawn) [Compound 163, 7-(3-Bromo-benzyl)-8-(3-fluoro-phenyl)-5,6,7,8-tetrahydro-tetrazolo[1,5-a]pyrazine] | 9.9 to 40 µM | 0.01 to 0.99 µM |
